Reference: patent publication US6660770B2, “Pesticidal activity of functionalized alkenes” (North Carolina State University, priority 1999, dated 2003)

How the values were obtained:
Mosquito larvae = test: Mosquito larval mortality bioassay; assay type: in vivo; conditions: mosquito larval mortality followed for three days in microtiter plates; compound dissolved in dimethylsulfoxide; Brewer's yeast
Procedure: Mosquito larval mortality was followed for three days in microtiter plates containing 160 μL sterile water, 1-4 μL of the test compound dissolved in dimethylsulfoxide, and 10 μL of 2% Brewer's yeast. Controls were run under the same conditions without the test compounds. Larval mortality in the controls was 3% for 1-3 μL dimethylsulfoxide, and up to 20% for 4 μL dimethylsulfoxide.

Ornithodoros parkeri = test: Repellent assay for ticks; assay type: in vivo; conditions: ten ticks; for # ticks on acetone: control paper opposite the compound paper; for # ticks on compound: test paper saturated with 60 uL of 15 mg/ml test solution
Procedure: A repellent assay for ticks is carried out as follows: (1) Prepare 15 mg/ml test solution of test compound in 100% acetone in individual 500 uL bullet tubes. Prepare control solution (1 uL olive oil plus 100 uL 100 acetone). (2) prepare half circle test papers (radious =2.25 cm) from Whatman filter paper (# 2 qualitative). (3) Saturate test papers with 60 uL of 100% acetone, control, or test solution. Test papers are in individual sterile petri dishes during this process. (4) Allow test papers to air dry at room temperature for one hour. (5) Select and place ten ticks into separate sterile glass petri dishes. Allow ticks to acclimate to covered dishes for one hour. (6) Transfer one test paper treated with a test solution and one test paper treated with the control solution to each of separate sterile petri dish bottoms. On control included two test papers treated with acetone. A second control included two test papers treated with the control solution. (7) Place ten ticks in between the two test papers. Place the test arenas in a dark room at room temperature. (8) Record the location of ticks 15 minutes, 1 hour and 2 hours after being placed in the test arenas.

| SMILES | Activity (LD50) (Mosquito larvae) [mM] | # ticks on acetone (Ornithodoros parkeri; 15 minutes) | # ticks on acetone (Ornithodoros parkeri; 1 hour) | # ticks on acetone (Ornithodoros parkeri; 2 hours) | other results |
| --- | --- | --- | --- | --- | --- |
| O=C(O)CCCCCCc1ccccc1 [7-Phenylheptanoic acid] | 0.19 ± 0.02 |  |  |  |  |
| O=C(O)CC/C=C/CCC1CCCCC1 [Compound 172, E-7-(Cyclohexyl)hept-4-enoic Acid] |  | 8 | 10 | 10 | # ticks on compound (Ornithodoros parkeri; 15 minutes): 2 |
| CCOC(=O)CC/C=C/CCC1CCCCC1 [Compound 218, Ethyl E-7-(Cyclohexyl)hept-4-enoate] |  | 10 | 10 | 10 |  |
| CCOC(=O)CC/C=C/CCc1ccc(-c2ccccc2)cc1 [Compound 221, Ethyl E-7-((4-phenyl)phenyl)hept-4-enoate] |  | 5 | 4 | 8 | # ticks on compound (Ornithodoros parkeri; 15 minutes): 5; # ticks on compound (Ornithodoros parkeri; 1 hour): 4; # ticks on compound (Ornithodoros parkeri; 2 hours): 2 |
| O=C(O)CC/C=C/CCc1ccc(O)cc1 [E-7-(4-Hydroxyphenyl)hept-4-enoic acid, E-7-(4-hydroxyphenyl)hept-4-enoic acid] | 0.59 ± 0.03 |  |  |  |  |
| COc1ccc(CC/C=C/CCC(=O)O)cc1 [E-7-(4-Methoxyphenyl)hept-4-enoic acid] | 1.28 |  |  |  |  |
| O=C(O)CC/C=C/CCc1ccccc1 [E-7-Phenylhept-4-enoic acid] | <0.08 |  |  |  |  |
